According to patent publication US20200361895A1, “NOVEL SULFONAMIDE CARBOXAMIDE COMPOUNDS” (Inflazome Limited, priority 2017, published 2020):
Counter-ions that a name gives are not always drawn.

Tests used:
[1] = target: T1, NLRP3 (Homo sapiens, UniProt Q96P20); assay: Human whole blood IL1β release assay (LPS + nigericin, AlphaLisa IL-1β; HWB IC50); type: cell-based; parameters: Human whole blood in Li-heparin tubes was obtained from healthy donors from a volunteer donor panel; from tissue; host or cells: human whole blood from healthy donors; settings: IL-1β release
In short: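 IL-1β in plasma supernatant quantified by AlphaLisa after nigericin (10 μM final, 1 h, 37 °C) triggering of human whole blood that had been preincubated 3 h with LPS (1 μg/ml) plus compound (half-log, 8 points, from 10 μM). IC50 by variable-slope four-parameter regression.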

[2] = target: T1, NLRP3; assay: THP-1 cells pyroptosis assay (LPS + nigericin, resazurin readout; THP IC50); type: cell-based; parameters: Seed THP-1 cells (25,000 cells/well) containing 1.0 μg/ml LPS in 40 μl of RPMI medium; host or cells: THP-1 cells
In short: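 IC50 from 4-parameter fit of resazurin fluorescence (100 μM, 1-2 hrs), reflecting surviving cells after pyroptosis. LPS-primed (1 μg/ml) THP-1 cells in FBS-free RPMI got compound for 3 hrs at 37° C (top 10 μM, half-log, 8 points), then nigericin 5 μM for 1 hr.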

T1 sequence (Q96P20 whole entry): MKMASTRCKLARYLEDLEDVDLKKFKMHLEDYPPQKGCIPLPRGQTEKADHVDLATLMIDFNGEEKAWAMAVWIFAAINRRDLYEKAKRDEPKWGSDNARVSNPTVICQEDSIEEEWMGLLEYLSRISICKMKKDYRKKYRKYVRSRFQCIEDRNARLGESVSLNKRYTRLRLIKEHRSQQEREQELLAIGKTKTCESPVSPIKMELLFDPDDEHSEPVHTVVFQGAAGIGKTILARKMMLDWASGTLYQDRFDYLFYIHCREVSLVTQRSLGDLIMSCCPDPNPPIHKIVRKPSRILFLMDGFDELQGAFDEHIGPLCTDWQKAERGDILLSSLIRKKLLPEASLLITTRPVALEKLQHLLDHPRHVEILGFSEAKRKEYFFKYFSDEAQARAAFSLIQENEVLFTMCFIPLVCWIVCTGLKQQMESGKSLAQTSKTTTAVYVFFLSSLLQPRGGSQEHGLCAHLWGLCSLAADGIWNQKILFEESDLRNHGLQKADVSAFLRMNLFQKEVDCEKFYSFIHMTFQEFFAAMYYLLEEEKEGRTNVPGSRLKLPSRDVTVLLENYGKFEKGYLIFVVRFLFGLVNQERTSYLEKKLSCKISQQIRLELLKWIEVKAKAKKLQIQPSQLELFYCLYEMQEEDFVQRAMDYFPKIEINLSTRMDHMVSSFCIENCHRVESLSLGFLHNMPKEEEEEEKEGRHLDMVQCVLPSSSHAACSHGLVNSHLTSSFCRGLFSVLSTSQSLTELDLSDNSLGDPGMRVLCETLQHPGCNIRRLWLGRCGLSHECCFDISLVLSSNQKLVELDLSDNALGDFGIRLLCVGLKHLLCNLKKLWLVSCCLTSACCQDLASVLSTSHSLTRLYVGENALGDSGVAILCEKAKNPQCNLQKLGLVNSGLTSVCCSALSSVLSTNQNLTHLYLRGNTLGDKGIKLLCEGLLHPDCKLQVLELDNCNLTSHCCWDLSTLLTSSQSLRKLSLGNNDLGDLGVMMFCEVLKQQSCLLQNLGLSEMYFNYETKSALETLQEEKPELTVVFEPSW

SMILES	IC50 [1]	IC50 [2]
O=C(Nc1c(-c2ccnc(OC3CC3)c2)ccc2c1CCC2)NS(=O)(=O)c1ccn(C2CC2)n1 [Example 261, N-((5-(2-Cyclopropoxypyridin-4-yl)-2,3-dihydro-1H-inden-4-yl)carbamoyl)-1-cyclopropyl-1H-pyrazole-3-sulfonamide, sodium salt]	≤ 5000 nM	≤ 500 nM
COc1cc(-c2ccc3c(c2NC(=O)NS(=O)(=O)c2ccn(CC4CC4)n2)CCC3)ccn1 [Example 263, 1-(Cyclopropylmethyl)-N-((5-(2-methoxypyridin-4-yl)-2,3-dihydro-1H-inden-4-yl)carbamoyl)-1H-pyrazole-3-sulfonamide, sodium salt]	≤ 500 nM	≤ 500 nM
COc1cc(-c2ccc3c(c2NC(=O)NS(=O)(=O)c2ccn(C4CC4)n2)CCO3)c(F)cn1 [Example 265, 1-Cyclopropyl-N-((5-(5-fluoro-2-methoxypyridin-4-yl)-2,3-dihydrobenzofuran-4-yl)carbamoyl)-1H-pyrazole-3-sulfonamide, sodium salt]	≤ 500 nM	≤ 500 nM
O=C(Nc1c(-c2ccnc(OC3CC3)c2)ccc2c1CCO2)NS(=O)(=O)c1ccn(C2CCC2)n1 [Example 266, 1-Cyclobutyl-N-((5-(2-cyclopropoxypyridin-4-yl)-2,3-dihydrobenzofuran-4-yl)carbamoyl)-1H-pyrazole-3-sulfonamide, sodium salt]	≤ 1000 nM	≤ 500 nM
COc1cc(-c2ccc3c(c2NC(=O)NS(=O)(=O)c2ccn(CC4CC4)n2)CCO3)ccn1 [Example 267, 1-(Cyclopropylmethyl)-N-((5-(2-methoxypyridin-4-yl)-2,3-dihydrobenzofuran-4-yl)carbamoyl)-1H-pyrazole-3-sulfonamide, sodium salt]	≤ 500 nM	≤ 500 nM
Cc1cc(-c2ccc3c(c2NC(=O)NS(=O)(=O)c2ccn(C4CCC4)n2)CCC3)ccn1 [Example 269, 1-Cyclobutyl-N-((5-(2-methylpyridin-4-yl)-2,3-dihydro-1H-inden-4-yl)carbamoyl)-1H-pyrazole-3-sulfonamide, sodium salt]	≤ 500 nM	≤ 500 nM
Cc1cc(-c2ccc3c(c2NC(=O)NS(=O)(=O)c2ccn(C4CC4)n2)CCC3)ccn1 [Example 270, 1-Cyclopropyl-N-((5-(2-methylpyridin-4-yl)-2,3-dihydro-1H-inden-4-yl)carbamoyl)-1H-pyrazole-3-sulfonamide, sodium salt]	≤ 500 nM	≤ 500 nM
N#Cc1cc(-c2ccc3c(c2NC(=O)NS(=O)(=O)c2ccn(CC4CC4)n2)CCC3)ccn1 [Example 271, N-((5-(2-Cyanopyridin-4-yl)-2,3-dihydro-1H-inden-4-yl)carbamoyl)-1-(cyclopropylmethyl)-1H-pyrazole-3-sulfonamide]	≤ 500 nM	≤ 500 nM
O=C(Nc1c(-c2ccnc(OC(F)F)c2)ccc2c1CCO2)NS(=O)(=O)c1ccn(C2CCC2)n1 [Example 275, 1-Cyclobutyl-N-((5-(2-(difluoromethoxy)pyridin-4-yl)-2,3-dihydrobenzofuran-4-yl)carbamoyl)-1H-pyrazole-3-sulfonamide, sodium salt]	≤ 500 nM	≤ 500 nM
O=C(Nc1c(-c2ccnc(OC3CC3)c2)ccc2c1CCO2)NS(=O)(=O)c1ccn(C2CC2)n1 [Example 276, N-((5-(2-Cyclopropoxypyridin-4-yl)-2,3-dihydrobenzofuran-4-yl)carbamoyl)-1-cyclopropyl-1H-pyrazole-3-sulfonamide, sodium salt]	≤ 1000 nM	≤ 500 nM
O=C(Nc1c(-c2ccnc(OC(F)F)c2)ccc2c1CCO2)NS(=O)(=O)c1ccn(C2CC2)n1 [Example 277, 1-Cyclopropyl-N-((5-(2-(difluoromethoxy)pyridin-4-yl)-2,3-dihydrobenzofuran-4-yl)carbamoyl)-1H-pyrazole-3-sulfonamide, sodium salt]	≤ 500 nM	≤ 500 nM
COc1cc(-c2ccc3c(c2NC(=O)NS(=O)(=O)c2ccn(C4CCC4)n2)CCO3)c(F)cn1 [Example 281, 1-Cyclobutyl-N-((5-(5-fluoro-2-methoxypyridin-4-yl)-2,3-dihydrobenzofuran-4-yl)carbamoyl)-1H-pyrazole-3-sulfonamide, sodium salt]	≤ 500 nM	≤ 500 nM
COc1cc(-c2ccc3c(c2NC(=O)NS(=O)(=O)c2ccc(C(C)C)c(CN(C)C)c2)CCC3)ccn1 [Example 282, 3-((Dimethylamino)methyl)-4-isopropyl-N-((5-(2-methoxypyridin-4-yl)-2,3-dihydro-1H-inden-4-yl)carbamoyl)benzenesulfonamide, sodium salt]	≤ 500 nM	≤ 500 nM
COc1cc(-c2ccc3c(c2NC(=O)NS(=O)(=O)OC2CCN(C)C2)CCC3)ccn1 (stereo not shown) [Example 284, 1-Methylpyrrolidin-3-yl (5-(2-methoxypyridin-4-yl)-2,3-dihydro-1H-inden-4-yl)carbamoylsulfamate]	≤ 1000 nM	≤ 500 nM
CC(C)n1ccc(S(=O)(=O)NC(=O)Nc2c(-c3ccnc(N)c3)ccc3c2CCC3)n1 [Example 285, N-((5-(2-Aminopyridin-4-yl)-2,3-dihydro-1H-inden-4-yl)carbamoyl)-1-isopropyl-1H-pyrazole-3-sulfonamide]	≤ 5000 nM	≤ 500 nM
COCC(C)Oc1cc(-c2ccc3c(c2NC(=O)NS(=O)(=O)c2ccn(C(C)C)n2)CCC3)ccn1 (stereo not shown) [Example 289, 1-Isopropyl-N-((5-(2-((1-methoxypropan-2-yl)oxy)pyridin-4-yl)-2,3-dihydro-1H-inden-4-yl)carbamoyl)-1H-pyrazole-3-sulfonamide, sodium salt]	≤ 5000 nM	≤ 500 nM

Second part, the compound after the results:

IC50 [1]	IC50 [2]	SMILES
≤ 5000 nM	≤ 500 nM	CC(C)n1ncc(S(=O)(=O)NC(=O)Nc2c(-c3ccnc(C#N)c3)ccc3c2CCC3)n1 [Example 260, N-((5-(2-Cyanopyridin-4-yl)-2,3-dihydro-1H-inden-4-yl)carbamoyl)-2-isopropyl-2H-1,2,3-triazole-4-sulfonamide, sodium salt]
≤ 1000 nM	≤ 500 nM	O=C(Nc1c(-c2ccnc(OC(F)F)c2)ccc2c1CCC2)NS(=O)(=O)c1ccn(C2CC2)n1 [Example 262, 1-Cyclopropyl-N-((5-(2-(difluoromethoxy)pyridin-4-yl)-2,3-dihydro-1H-inden-4-yl)carbamoyl)-1H-pyrazole-3-sulfonamide, sodium salt]
≤ 500 nM	≤ 500 nM	CC(C)(C)n1ccc(S(=O)(=O)NC(=O)Nc2c(-c3ccnc(C#N)c3)ccc3c2CCC3)n1 [Example 264, 1-(tert-Butyl)-N-((5-(2-cyanopyridin-4-yl)-2,3-dihydro-1H-inden-4-yl)carbamoyl)-1H-pyrazole-3-sulfonamide, sodium salt]
≤ 500 nM	≤ 500 nM	CC(C)(CN1CCC1)n1ccc(S(=O)(=O)NC(=O)Nc2c(-c3ccnc(OC4CC4)c3)ccc3c2CCC3)n1 [Example 274, 1-(1-(Azetidin-1-yl)-2-methylpropan-2-yl)-N-((5-(2-cyclopropoxypyridin-4-yl)-2,3-dihydro-1H-inden-4-yl)carbamoyl)-1H-pyrazole-3-sulfonamide, sodium salt]
≤ 500 nM	≤ 500 nM	[2H]C([2H])([2H])Oc1cc(-c2ccc3c(c2NC(=O)NS(=O)(=O)c2ccn(C4CC4)n2)CCO3)ccn1 [Example 278, 1-Cyclopropyl-N-((5-(2-(methoxy-d3)pyridin-4-yl)-2,3-dihydrobenzofuran-4-yl)carbamoyl)-1H-pyrazole-3-sulfonamide, sodium salt]
≤ 500 nM	≤ 500 nM	[2H]C([2H])([2H])Oc1cc(-c2ccc3c(c2NC(=O)NS(=O)(=O)c2ccn(C4CC4)n2)CCC3)ccn1 [Example 279, 1-Cyclopropyl-N-((5-(2-(methoxy-d3)pyridin-4-yl)-2,3-dihydro-1H-inden-4-yl)carbamoyl)-1H-pyrazole-3-sulfonamide, sodium salt]
≤ 500 nM	≤ 500 nM	[2H]C([2H])([2H])Oc1cc(-c2ccc3c(c2NC(=O)NS(=O)(=O)c2ccn(C4CCC4)n2)CCO3)ccn1 [Example 280, 1-Cyclobutyl-N-((5-(2-(methoxy-d3)pyridin-4-yl)-2,3-dihydrobenzofuran-4-yl)carbamoyl)-1H-pyrazole-3-sulfonamide, sodium salt]
≤ 10000 nM	≤ 500 nM	CC(C)n1ccc(S(=O)(=O)NC(=O)Nc2c(-c3ccnc(Oc4ccccc4)c3)ccc3c2CCC3)n1 [Example 286, 1-Isopropyl-N-((5-(2-phenoxypyridin-4-yl)-2,3-dihydro-1H-inden-4-yl)carbamoyl)-1H-pyrazole-3-sulfonamide, sodium salt]
≤ 500 nM	≤ 500 nM	CC(C)n1ccc(S(=O)(=O)NC(=O)Nc2c(-c3ccnc(OC4CCN(C)CC4)c3)ccc3c2CCC3)n1 [Example 287, 1-Isopropyl-N-((5-(2-((1-methylpiperidin-4-yl)oxy)pyridin-4-yl)-2,3-dihydro-1H-inden-4-yl)carbamoyl)-1H-pyrazole-3-sulfonamide, sodium salt]
≤ 5000 nM	≤ 500 nM	CC(C)n1ccc(S(=O)(=O)NC(=O)Nc2c(-c3ccnc(OC4CCCOC4)c3)ccc3c2CCC3)n1 (stereo not shown) [Example 288, 1-Isopropyl-N-((5-(2-((tetrahydro-2H-pyran-3-yl)oxy)pyridin-4-yl)-2,3-dihydro-1H-inden-4-yl)carbamoyl)-1H-pyrazole-3-sulfonamide, sodium salt]
